Experimental data reported in patent publication US9120774B2 (University of Kansas, priority 2009, dated 2015).
Where two headings read alike, the source gives them in different places.

How the values were obtained:
Assay type in all cases: cell-based
[1] = test system: SkBr3 (Her2 overexpressing breast cancer cells); experiment: Anti-proliferation activity against SkBr3 cells (MTS/PMS); conditions: Homo sapiens, SK-BR-3, n = 3, read-out: IC50 SkBr3
How it was run: (§1)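 Viability after 72 h compound treatment (1% DMSO final, 37° C., 5% CO2) measured by MTS/PMS; plating density 2000 cells/well with overnight attachment.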

[2] = test system: PL45 (pancreatic cancer cells); experiment: Anti-proliferation activity against PL45 cells
Experimental: (§2) Upon completion of synthesis of library of compounds in Examples 23 and 24, the compounds were evaluated for anti-proliferative activity against SkBr3 (Her2 overexpressing breast cancer cells), MCF-7 (estrogen receptor positive breast cancer cells), HCT-116 (colon cancer cells characterized by wild-type p53), PL45 (pancreatic cancer cells), LNCaP (androgen sensitive prostate cancer cells) and PC-3 (androgen independent prostate cancer cells) cell lines. […] The monosubstituted benzamide variants improved activity.

[3] = test system: MCF-7 (estrogen receptor positive breast cancer cells); experiment: Anti-proliferation activity against MCF-7 cells (MTS/PMS); conditions: Homo sapiens, MCF7, n = 3, read-out: IC50 MCF-7
How it was run: as §1

[4] = test system: PC-3 (androgen independent prostate cancer cells); experiment: Anti-proliferation activity against PC-3 cells; conditions: Homo sapiens, PC-3, n = 3, read-out: IC50 PC-3
How it was run: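 Antiproliferative activity was tested in PC-3 androgen-independent prostate cancer cells. Cells grown at 37° C. with 5% CO2 in Advanced DMEM/F12 (1:1) containing non-essential amino acids, 2 mM L-glutamine, streptomycin, penicillin and 10% FBS were plated at 2000/well in 96-well plates. Proliferation was normalized to 1% DMSO controls, and IC50 values from triplicate experiments were fitted in GraphPad Prism.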

[5] = test system: HCT-116 (colon cancer cells characterized by wild-type p53); experiment: Anti-proliferation activity against HCT-116 cells; conditions: Homo sapiens
Experimental: as §2

[6] = test system: LNCaP (androgen sensitive prostate cancer cells); experiment: Anti-proliferation activity against LNCaP cells; conditions: Homo sapiens, LNCaP, n = 3, read-out: IC50 LNCaP
How it was run: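 Cells seeded at 2000/well in Advanced DMEM/F12 with 10% FBS and attached overnight, then given compound in 1% DMSO final for 72 h at 37 °C, 5% CO2. Viable cells by MTS/PMS read-out, normalised to 1% DMSO as 100% proliferation. IC50 from separate triplicate experiments.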

[7] = Table 4, biaryl analogues, n = 3
[8] = Table 5, heterocyclic analogues
[9] = Table 5, heterocyclic analogues, n = 3

Row | SMILES | IC50 ([1]; Table 4, biaryl analogues) [µM] | IC50 [2, 7] [µM] | IC50 ([3]; Table 4, biaryl analogues) [µM] | IC50 ([4]; Table 4, biaryl analogues) [µM] | IC50 [5, 7] [µM] | IC50 ([6]; Table 4, biaryl analogues) [µM] | other results
1 | CO[C@@H]1[C@@H](O)[C@@H](O)[C@H](Oc2ccc3cc(NC(=O)CCc4ccccc4)c(=O)oc3c2C)OC1(C)C [compound 23, N-(7-((2R,3R,4S,5R)-3,4-Dihydroxy-5-methoxy-6,6-dimethyltetrahydro-2H-pyran-2-yloxy)-8-methyl-2-oxo-2H-chromen-3-yl)-3-phenylpropanamide] |  |  |  |  |  |  | IC50 ([1]; Table 3): 10.2 ± 2.3 µM; IC50 ([2]; Table 3, n = 3): 9.8 ± 0.2 µM; IC50 ([3]; Table 3): 6.9 ± 0.3 µM; IC50 ([4]; Table 3): 22 ± 5.8 µM; IC50 ([5]; Table 3, n = 3): 5.4 ± 0.6 µM; IC50 ([6]; Table 3): 92.8 ± 0.9 µM
2 | COc1ccc(C(=O)Nc2cc3ccc(O[C@@H]4OC(C)(C)[C@H](OC)[C@@H](O)[C@H]4O)c(C)c3oc2=O)cc1-c1ccccc1 [compound 28, N-(7-((2R,3R,4S,5R)-3,4-Dihydroxy-5-methoxy-6,6-dimethyltetrahydro-2H-pyran-2-yloxy)-8-methyl-2-oxo-2H-chromen-3-yl)-6-methoxybiphenyl-3-carboxamide] | 16.5 ± 4.7 | 2.8 ± 0.4 | 19.5 ± 2.3 | 25.4 ± 5.2 | 11.4 | 1.9 ± 0.2 | 
3 | COc1ccc(C(=O)Nc2cc3ccc(O[C@@H]4OC(C)(C)[C@H](OC)[C@@H](O)[C@H]4O)c(C)c3oc2=O)cc1-c1ccccc1C [compound 29, N-(7-((2R,3R,4S,5R)-3,4-Dihydroxy-5-methoxy-6,6-dimethyltetrahydro-2H-pyran-2-yloxy)-8-methyl-2-oxo-2H-chromen-3-yl)-6-methoxy-2′-methylbiphenyl-3-carboxamide] | 32.4 ± 5.1 | 6.8 ± 1.5 | 18.9 ± 2.7 | 64.7 ± 17.1 | 37.5 ± 3.4 | 22.6 ± 3.3 | 
4 | COc1ccc(C(=O)Nc2cc3ccc(O[C@@H]4OC(C)(C)[C@H](OC)[C@@H](O)[C@H]4O)c(C)c3oc2=O)cc1-c1cccc(C)c1 [compound 30, N-(7-((2R,3R,4S,5R)-3,4-Dihydroxy-5-methoxy-6,6-dimethyltetrahydro-2H-pyran-2-yloxy)-8-methyl-2-oxo-2H-chromen-3-yl)-6-methoxy-3′-methylbiphenyl-3-carboxamide] | 20.4 ± 3.5 | 4.2 ± 1 | 20.4 ± 0.8 | 50.7 ± 4.3 | 26.4 ± 0.6 | 4.2 ± 1.2 | 
5 | COc1ccc(C(=O)Nc2cc3ccc(O[C@@H]4OC(C)(C)[C@H](OC)[C@@H](O)[C@H]4O)c(C)c3oc2=O)cc1-c1ccc(C)cc1 [compound 31, N-(7-((2R,3R,4S,5R)-3,4-Dihydroxy-5-methoxy-6,6-dimethyltetrahydro-2H-pyran-2-yloxy)-8-methyl-2-oxo-2H-chromen-3-yl)-6-methoxy-4′-methylbiphenyl-3-carboxamide] | 25.4 ± 1.7 | 1.4 ± 0.1 | 16.7 ± 6.3 | 31.9 ± 10.3 | 2.4 ± 1 | 3.7 ± 0.9 | 
6 | COc1cccc(-c2cc(C(=O)Nc3cc4ccc(O[C@@H]5OC(C)(C)[C@H](OC)[C@@H](O)[C@H]5O)c(C)c4oc3=O)ccc2OC)c1 [compound 33, N-(7-((2R,3R,4S,5R)-3,4-Dihydroxy-5-methoxy-6,6-dimethyltetrahydro-2H-pyran-2-yloxy)-8-methyl-2-oxo-2H-chromen-3-yl)-3′,6-dimethoxybiphenyl-3-carboxamide] | 7.5 ± 1 | 2 ± 0.6 | 18.7 ± 1.8 | 53.3 ± 4.5 | 5.1 ± 1.1 | 2.1 ± 0.3 | 
7 | CO[C@@H]1[C@@H](O)[C@@H](O)[C@H](Oc2ccc3cc(NC(=O)c4ccccn4)c(=O)oc3c2C)OC1(C)C [compound 40, N-(7-((2R,3R,4S,5R)-3,4-Dihydroxy-5-methoxy-6,6-dimethyltetrahydro-2H-pyran-2-yloxy)-8-methyl-2-oxo-2H-chromen-3-yl)picolinamide] |  |  |  |  |  |  | IC50 [1, 8]: 28.4 ± 2 µM; IC50 [2, 9]: 7.9 ± 0.7 µM; IC50 [3, 8]: 20.3 ± 4.1 µM; IC50 [4, 8]: 15.1 ± 2.1 µM; IC50 [5, 9]: 23.3 ± 5.9 µM; IC50 [6, 8]: 44.9 ± 31.1 µM
8 | CO[C@@H]1[C@@H](O)[C@@H](O)[C@H](Oc2ccc3cc(NC(=O)c4cccnc4)c(=O)oc3c2C)OC1(C)C [compound 41, N-(7-((2R,3R,4S,5R)-3,4-Dihydroxy-5-methoxy-6,6-dimethyltetrahydro-2H-pyran-2-yloxy)-8-methyl-2-oxo-2H-chromen-3-yl)nicotinamide] |  |  |  |  |  |  | IC50 [1, 8]: 65.9 ± 15.8 µM; IC50 [2, 9]: 13.2 ± 1 µM; IC50 [3, 8]: 47.8 ± 4.2 µM; IC50 [4, 8]: 67 ± 20.2 µM; IC50 [5, 9]: 37.3 ± 1 µM; IC50 [6, 8]: 50.1 ± 3.3 µM
9 | CO[C@@H]1[C@@H](O)[C@@H](O)[C@H](Oc2ccc3cc(NC(=O)c4ccc5c(c4)OCO5)c(=O)oc3c2C)OC1(C)C [compound 45, N-(7-((2R,3R,4S,5R)-3,4-Dihydroxy-5-methoxy-6,6-dimethyltetrahydro-2H-pyran-2-yloxy)-8-methyl-2-oxo-2H-chromen-3-yl)benzo[d][1,3]dioxole-5-carboxamide] |  |  |  |  |  |  | IC50 [1, 8]: > 100 µM; IC50 [2, 9]: 5.2 ± 1.1 µM; IC50 [3, 8]: > 100 µM; IC50 [4, 8]: 10.9 ± 2.3 µM; IC50 [5, 9]: > 100 µM; IC50 [6, 8]: 9.3 ± 0.6 µM

The next lines start with results.

Row | IC50 ([1]; Table 4, biaryl analogues) [µM] | IC50 [2, 7] [µM] | IC50 ([3]; Table 4, biaryl analogues) [µM] | IC50 ([4]; Table 4, biaryl analogues) [µM] | IC50 [5, 7] [µM] | IC50 ([6]; Table 4, biaryl analogues) [µM] | SMILES | other results
10 | 7.8 ± 0.5 | 2.6 ± 0.5 | 37.9 ± 2.3 | 44 ± 20.3 | 24 ± 0.3 | 3.3 ± 0.6 | COc1ccc(-c2cc(C(=O)Nc3cc4ccc(O[C@@H]5OC(C)(C)[C@H](OC)[C@@H](O)[C@H]5O)c(C)c4oc3=O)ccc2OC)cc1 [compound 34, N-(7-((2R,3R,4S,5R)-3,4-Dihydroxy-5-methoxy-6,6-dimethyltetrahydro-2H-pyran-2-yloxy)-8-methyl-2-oxo-2H-chromen-3-yl)-4′,6-dimethoxybiphenyl-3-carboxamide] | 
11 | 2.9 ± 1.2 | 1.1 | 5.3 ± 1.5 | 14.7 ± 2.4 | 4.5 ± 1.2 | 2.5 ± 1.2 | COc1ccc(C(=O)Nc2cc3ccc(O[C@@H]4OC(C)(C)[C@H](OC)[C@@H](O)[C@H]4O)c(C)c3oc2=O)cc1-c1cccc(O)c1 [compound 36, N-(7-((2R,3R,4S,5R)-3,4-Dihydroxy-5-methoxy-6,6-dimethyltetrahydro-2H-pyran-2-yloxy)-8-methyl-2-oxo-2H-chromen-3-yl)-3′-hydroxy-6-methoxybiphenyl-3-carboxamide] | 
12 | 1.6 ± 0.2 | 1.9 ± 0.8 | 2.3 ± 0.8 | 22.3 ± 3.6 | 1.4 ± 0.1 | 2.6 ± 0.5 | COc1ccc(C(=O)Nc2cc3ccc(O[C@@H]4OC(C)(C)[C@H](OC)[C@@H](O)[C@H]4O)c(C)c3oc2=O)cc1-c1ccc(O)cc1 [compound 37, N-(7-((2R,3R,4S,5R)-3,4-Dihydroxy-5-methoxy-6,6-dimethyltetrahydro-2H-pyran-2-yloxy)-8-methyl-2-oxo-2H-chromen-3-yl)-4′-hydroxy-6-methoxybiphenyl-3-carboxamide] | 
13 | > 100 | > 100 | > 100 | 1 ± 0.1 | > 100 | 8.8 ± 0.6 | COc1ccc(C(=O)Nc2cc3ccc(O[C@@H]4OC(C)(C)[C@H](OC)[C@@H](O)[C@H]4O)c(C)c3oc2=O)cc1-c1cccc2c1Sc1ccccc1S2 [compound 38, N-(7-((2R,3R,4S,5R)-3,4-Dihydroxy-5-methoxy-6,6-dimethyltetrahydro-2H-pyran-2-yloxy)-8-methyl-2-oxo-2H-chromen-3-yl)-4-methoxy-3-(thianthren-1-yl)benzamide] | 
